Data: patent US9737525B2, “Small molecule activators of NRF2 pathway” (The General Hospital Corporation, priority 2013, dated 2017)

Tests used:
[1] = test system: primary human monocytes; assay: LDH cell death assay in primary human monocytes; format: cell-based; conditions: any concentration
Description: Blood samples were obtained from control subjects and genetically-diagnosed, symptomatic HD patients. Patients were classed as having early or moderate-stage disease using the total functional capacity (TFC) scale (13-7, early; 6-3, moderate) [Marder, 2000]. Subjects with inflammatory or infective conditions were excluded. Cells were isolated from whole blood, as previously described [Björkqvist, 2008]. In brief, 50 ml whole blood was collected in heparin (CP Pharmaceuticals) and leukocytes were isolated by density gradient centrifugation. Monocytes were sorted via magnetic cell separation columns using anti-CD14 microbeads (Miltenyi Biotec). Monocytes were seeded at 1×10^5 cells per well in 96-well PRIMARIA™ tissue culture plates (BD Falcon) with R10 media (RPMI culture medium supplemented with 10% FCS, 2 mM L-glutamine, 50 U/ml penicillin and […] streptomycin (Invitrogen)). […] Supernatants were analyzed using the human pro-inflammatory II (4-plex) MSD assay measuring IL-1b, IL-6, IL-8 and TNFα. […] Cell death was measured using a LDH assay (CytoTox-Fluor™ Cytotoxicity Assay from Promega). Normalized cytokine levels have been analyzed on the logarithmic scale due to their skewed distribution. […] Contrasts of interest were then calculated using linear combinations of parameter estimates.

[2] = test system: ARE genes Nqo1, Hmox1, Gclc; assay: qPCR of ARE target genes in corticostriatal co-cultures; format: cell-based, mouse; conditions: 6 hr
Description: Primary corticostriatal neuronal co-cultures were prepared from E18 mouse brains as previously described [Kaltenbach, 2010]. Mice were maintained in accordance with Duke University Medical Center Institutional Animal Care and Use Committee guidelines. For 5×-ARE-luciferase reporter assays, neurons were transfected following their isolation (Nucleofector, Lonza) with 2.5 μg Cignal Antioxidant Response Reporter dual luciferase plasmids (Qiagen/SABiosciences) and plated onto pre-established glial beds in 96 well plates. After 4 days in culture at 37° C. under 5% CO2, co-cultures were treated with the indicated compounds for 4 hr or 16 hr then harvested and read for luminescence from firefly and Renilla luciferases according to the Dual Glo luciferase protocol (Promega) using a SpectraMaxL luminometer (Molecular Devices). Each sample was measured in technical triplicate. For quantitative RT-PCR (qPCR) of ARE target genes, corticostriatal co-cultures were prepared as described above and, after 4 days in culture, treated for 6 hr with the indicated compounds followed by RNA harvesting according to the Absolutely RNA miniprep protocol (Agilent Technologies). Purified RNA was converted to cDNA using random hexamers and SuperScript First-Strand RT-PCR Synthesis (Invitrogen). […] Ct values were determined using primer sets against ARE genes Hmox1, Gclc and Nqo1]. […]

[3] = test system: iBMM macrophages; assay: Transcriptional responses in LPS-induced iBMM macrophages (qRT-PCR); format: cell-based, mouse; conditions: 24 hr
Description: Immortalized bone marrow derived mouse macrophages (iBMMs) and BV2 mouse microglia cell line were used in the present study. Both cell types were maintained in DMEM media supplemented with 10% FBS and antibiotic-antimycotic mix. Cells were seeded into 12 well plates at the density of 3×10^5 cells/well. Cells were treated with the indicated concentrations of MIND4-17 compounds for 24 hr. Cells were then stimulated with 10 ng/ml LPS (E. coli, Sigma) for 2 hr. Total RNA was isolated using ZR Miniprep kit (Zymo Research). […] of total RNA was used to prepare cDNA. Gene expression was analyzed using VeriQuest SYBR green assay (Affymetrix) in Roche480 thermocycler. Primer sequences are as described above (see Example 9).

[4] = test system: α-tubulin (lysine K40) acetylation in ST14A cells; assay: α-Tubulin acetylation in differentiated ST14A cells; format: cell-based, rat; conditions: mutant HD and wild type ST14A cells, 6 hours
Description: Compound bioactivity was tested in the rat embryonic striatal cell lines ST14A, which stably express either a mutant expanded repeat (128Q) or wild type (26Q) 546 amino acid huntingtin (HTT) fragment (a generous gift of E. Cattaneo) (Ehrlich et al., 2001) ST14A cells were propagated at 33° C. in the presence of serum. To induce neuronal differentiation, cells were serum deprived and cultured at 37° C. in the presence of N2 supplement. […]
This increased α-tubulin acetylation in compound-treated cells was consistent with the activity of MIND4 as a SIRT2 inhibitor.

[5] = test system: mutant HTT exon 1 fragment; assay: Mutant HTT exon 1 levels in R6/2 mice (HTRF); format: in vivo, mouse; conditions: 50 mg/kG daily for 3 weeks
Description: In effects of brain-permeable MIND4 on clearance misfloded mutant HTT fragments have been tested in HD mouse model R6/2, expressing mutant HTT exon 1 fragment. Symptomatic HD mice (5 week old) have been treated with MIND4 at 50 mg/kG daily dose for 3 weeks. Treatment effects on levels of mutant exon 1 HTT have been measured by a highly sensitive HTRF method (FIG. 17C) as described (Mosckovitch-Lopatin, 2010; Chopra, 2012).

| SMILES | Toxic effect on viability of primary human monocytes [1] | Expression of ARE genes Nqo1, Hmox1 [2] | Expression of Gcic [2] [fold] | Expression of inflammatory factors TNFα, IL-6, IL-1β and MCP-1 [3] | Transcription of GCLM and NQO1 [3] | Acetylation of α-tubulin (lysine K40) [4] | Mutant HTT exon 1 fragments in cortex [5] |
| --- | --- | --- | --- | --- | --- | --- | --- |
| O=[N+]([O-])c1ccc(Sc2nnc(COc3ccccc3)n2-c2ccccc2)nc1 [MIND4-17] | Neither vehicle (DMSO) or MIND4-17 had a toxic effect | increased the expression of the canonical ARE genes Nqo1, Hmox1 | ~2 | repressed expression of inflammatory factors | increased transcription of GCLM and NQO1 | – | – |
| O=[N+]([O-])c1ccc(Sc2nnc(COc3ccccc3)n2-c2ccccc2)c2ncccc12 [MIND4, 5-nitro-8-{[5-(phenoxymethyl)-4-phenyl-4H-1,2,4-triazol-3-yl]thio}quinoline] | – | – | – | – | – | dose dependent increase in acetylation of α-tubulin | Significant reduction of mutant HTT exon I fragments |
